Values of other authors in US20140208977A1, “POLYDISPERSE COMPOSITIONS AND METHODS FOR ELIMINATING VOLATILE ORGANIC COMPOUNDS” (priority 2013, published 2014).

conditions: 77° F.

SMILES | Vapor Pressure [mmHg]
C[Si]1(C)O[Si](C)(C)O[Si](C)(C)O[Si](C)(C)O[Si](C)(C)O1 [Decamethylcyclopentasiloxane] | 0.4
C[Si](C)(C)O[Si](C)(C)O[Si](C)(C)O[Si](C)(C)O[Si](C)(C)C [Dodecamethylpentasiloxane] | 0.7
C[Si]1(C)O[Si](C)(C)O[Si](C)(C)O[Si](C)(C)O1 [Octamethylcyclotetrasiloxane] | 1.3
C[Si]1(C)O[Si](C)(C)O[Si](C)(C)O[Si](C)(C)O[Si](C)(C)O[Si](C)(C)O1 [Dodecamethylcyclohexasiloxane] | 0.02
C[Si](C)(C)O[Si](C)(C)O[Si](C)(C)O[Si](C)(C)C [Decamethyltetrasiloxane] | 0.55
C[Si](C)(C)O[Si](C)(C)O[Si](C)(C)C [Octamethyltrisiloxane] | 3.9
C[Si](C)(C)O[Si](C)(C)C [Hexamethyldisiloxane] | 31

conditions: 25° C.

SMILES | Water Solubility [µg/mL]
C[Si]1(C)O[Si](C)(C)O[Si](C)(C)O1 [Hexamethylcyclotrisiloxane] | 1.56
C[Si](C)(C)O[Si](C)(C)O[Si](C)(C)C [Octamethyltrisiloxane] | 0.035
